Results published in ChEMBL document CHEMBL5214905 (J Med Chem, 2021).
pEC50, pIC50: −log10 of the molar value. Active and inactive are the calls of the source. The rule behind the calls is not given here.

Assays:
[1] = target: Indoleamine 2,3-dioxygenase 1 (Homo sapiens, UniProt P14902); experiment: Inhibition of IDO1 in IFN-gamma induced overexpressing human HeLa cells; format: cell-based
[2] = target: Tryptophan 2,3-dioxygenase (Homo sapiens, UniProt P48775); experiment: Inhibition of TDO in overexpressing human A-172 cells; format: cell-based
Sequence of Tryptophan 2,3-dioxygenase (P48775 whole entry): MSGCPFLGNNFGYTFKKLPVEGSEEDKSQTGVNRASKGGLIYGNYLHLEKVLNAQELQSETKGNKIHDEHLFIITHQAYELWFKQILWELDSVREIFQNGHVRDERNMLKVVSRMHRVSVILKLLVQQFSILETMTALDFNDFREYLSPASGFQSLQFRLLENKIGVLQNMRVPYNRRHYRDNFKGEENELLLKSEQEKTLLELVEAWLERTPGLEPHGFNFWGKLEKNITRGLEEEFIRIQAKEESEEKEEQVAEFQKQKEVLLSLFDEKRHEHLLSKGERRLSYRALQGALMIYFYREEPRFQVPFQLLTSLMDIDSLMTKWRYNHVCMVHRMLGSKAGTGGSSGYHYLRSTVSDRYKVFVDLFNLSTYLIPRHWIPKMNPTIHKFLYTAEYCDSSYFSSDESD

[3] = tested on: BCRP; experiment: Apparent permeability in human Caco-2 expressing BCRP cells across apical to basolateral side in presence of novobiocin; format: ADME, cell-based; conditions: Caco-2, with novobiocin (concentration not stated), read-out: permeability
[4] = tested on: MDR1; experiment: Apparent permeability in MDCKII expressing MDR1 cells across basolateral to apical side; format: ADME, cell-based, Canis lupus familiaris, MDCK-II; conditions: dog, MDCK-MDR1; read-out: permeability
[5] = tested on: BCRP; experiment: Apparent permeability in human Caco-2 expressing BCRP cells across basolateral to apical side; format: ADME, cell-based; conditions: read-out: permeability
[6] = tested on: BCRP; experiment: Efflux ratio of apparent permeability across basolateral to apical side to apical to basolateral side in human Caco-2 expressing BCRP cells in presence of novobiocin; format: ADME, cell-based; conditions: Caco-2, with novobiocin (concentration not stated)
[7] = tested on: BCRP; experiment: Permeability in human Caco-2 expressing BCRP cells across apical to basolateral side by measuring ratio of the final amount of the compound in donor and receiver chambers to the initial amount of the compound in the donor chamber relative to control; format: ADME, cell-based
[8] = tested on: BCRP; experiment: Permeability in human Caco-2 expressing BCRP cells across apical to basolateral side by measuring ratio of the final amount of the compound in donor and receiver chambers to the initial amount of the compound in the donor chamber in presence of novobiocin relative to control; format: ADME, cell-based; conditions: Caco-2, with novobiocin (concentration not stated)
[9] = tested on: BCRP; experiment: Permeability in human Caco-2 expressing BCRP cells across basolateral to apical side by measuring ratio of the final amount of the compound in donor and receiver chambers to the initial amount of the compound in the donor chamber in presence of novobiocin relative to control; format: ADME, cell-based; conditions: Caco-2, with novobiocin (concentration not stated)
[10] = Plasma protein binding in Kunming mouse assessed as binding rate by LC-MS/MS analysis relative to control; format: ADME; conditions: read-out: PPB (converted)
[11] = Unbound fraction in mouse brain by LC-MS/MS analysis relative to control; format: ADME, tissue-based
[12] = AUC (0 to 12 hrs) in Sprague-Dawley rat plasma at 100 mg/kg, po measured after 0.083 to 24 hrs by HPLC analysis; format: ADME, organism-based; parameters: time lower 0.083 hrs, dose 100 mg/kg, time upper 24 hrs, route po
[13] = Half life in Sprague-Dawley rat plasma at 100 mg/kg, po by HPLC analysis; format: ADME, organism-based
[14] = Half life in Sprague-Dawley rat plasma at 100 mg/kg, iv by HPLC analysis; format: ADME, organism-based
[15] = Cmax in Sprague-Dawley rat plasma at 100 mg/kg, po measured after 0.083 to 24 hrs by HPLC analysis; format: ADME, organism-based; parameters: time lower 0.083 hrs, dose 100 mg/kg, time upper 24 hrs, route po
[16] = AUC (0 to 12 hrs) in Sprague-Dawley rat plasma at 100 mg/kg, iv measured after 0.083 to 24 hrs by HPLC analysis; format: ADME, organism-based; parameters: dose 100 mg/kg, time 0.083-24 hrs, route iv
[17] = AUC (0 to infinity) in Sprague-Dawley rat plasma at 100 mg/kg, iv measured after 0.083 to 24 hrs by HPLC analysis; format: ADME, organism-based; parameters: time lower 0.083 hrs, dose 100 mg/kg, time upper 24 hrs, route iv
[18] = Volume of distribution at steady state in Sprague-Dawley rat plasma at 100 mg/kg, iv measured after 0.083 to 24 hrs by HPLC analysis; format: ADME, organism-based; conditions: time 0.083-24 hrs, read-out: Vdss
[19] = Clearance in Sprague-Dawley rat plasma at 100 mg/kg, po measured after 0.083 to 24 hrs by HPLC analysis; format: ADME, organism-based; conditions: time 0.083-24 hrs
[20] = Oral bioavailability in Sprague-Dawley rat plasma by measuring dose-corrected area under the curve (AUC) oral divided by AUC intravenous at 100 mg/kg measured after 0.083 to 24 hrs by HPLC analysis relative to control; format: ADME, organism-based; conditions: time 0.083-24 hrs
[21] = Ratio of drug concentration in unbound brain to unbound plasma in Kunming mouse assessed as blood brain barrier permeability measured at 0.5 to 12 hrs by HPLC analysis; conditions: time 0.5-12 hrs
[22] = Toxicity in MPTP induced C57BL/6J mouse neurodegenerative model assessed as no change in body weight treated with MPTP for 7 days followed by compound administration at 10 to 100 mg/kg, po measured upto 32 days; format: organism-based; conditions: in vivo, 768 h, dose 10-100 mg/kg, time < 32 day
[23] = Toxicity in MPTP induced C57BL/6J mouse neurodegenerative model assessed as no change in liver weight treated with MPTP for 7 days followed by compound administration at 10 to 30 mg/kg, po measured upto 32 days; format: organism-based; conditions: in vivo, 768 h, dose 10-30 mg/kg, time < 32 day
[24] = Toxicity in MPTP induced C57BL/6J mouse neurodegenerative model assessed as no change in lung weight treated with MPTP for 7 days followed by compound administration at 10 to 30 mg/kg, po measured upto 32 days; format: organism-based; conditions: in vivo, 768 h, dose 10-30 mg/kg, time < 32 day
[25] = tested on: Mus musculus; experiment: Neuroprotective activity in MPTP induced C57BL/6J mouse neurodegenerative model assessed as decrease in Iba-1 expression in positive neuron cells in brain striatum treated with MPTP for 7 days followed by compound administration at 30 mg/kg, po by IHC staining method; format: functional, organism-based
[26] = tested on: Mus musculus; experiment: Neuroprotective activity in MPTP induced C57BL/6J mouse neurodegenerative model assessed as no change in IDO1 expression in brain striatum treated with MPTP for 7 days followed by compound administration at 30 mg/kg, po by Western blotting analysis; format: functional, organism-based
[27] = tested on: Mus musculus; experiment: In vivo antiinflammatory activity in MPTP induced C57BL/6J mouse neurodegenerative model assessed as decrease in IL-1 beta expression treated with MPTP for 7 days followed by compound administration at 30 mg/kg, po by Western blotting analysis; format: functional, organism-based
[28] = tested on: Mus musculus; experiment: Neuroprotective activity in MPTP induced neurodegenerative C57BL/6J mouse model blood assessed as increase in tryptophan metabolite KYNA treated with MPTP for 7 days followed by compound administration at 30 mg/kg, po by LC-MS/MS analysis; format: functional, organism-based
[29] = tested on: Mus musculus; experiment: Neuroprotective activity in MPTP induced neurodegenerative C57BL/6J mouse model assessed as decrease in tryptophan metabolite NFK in mouse striatum treated with MPTP for 7 days followed by compound administration at 30 mg/kg, po by LC-MS/MS analysis; format: functional, organism-based
[30] = tested on: Mus musculus; experiment: Neuroprotective activity in MPTP induced neurodegenerative C57BL/6J mouse model assessed as decrease in tryptophan metabolite QUIN in mouse striatum treated with MPTP for 7 days followed by compound administration at 30 mg/kg, po by LC-MS/MS analysis; format: functional, organism-based
[31] = tested on: Mus musculus; experiment: Neuroprotective activity in MPTP induced neurodegenerative C57BL/6J mouse model assessed as decrease in tryptophan metabolite QUIN in mouse substantia nigra treated with MPTP for 7 days followed by compound administration at 30 mg/kg, po by LC-MS/MS analysis; format: functional, organism-based
[32] = target: Cytochrome P450 2C9 (Homo sapiens, UniProt P11712); experiment: Inhibition of human liver microsome CYP2C9 using 4'-hydroxy diclofenac as substrate incubated for 10 mins by LC/MS/MS analysis; format: microsomes
Sequence of Cytochrome P450 2C9 (P11712 whole entry): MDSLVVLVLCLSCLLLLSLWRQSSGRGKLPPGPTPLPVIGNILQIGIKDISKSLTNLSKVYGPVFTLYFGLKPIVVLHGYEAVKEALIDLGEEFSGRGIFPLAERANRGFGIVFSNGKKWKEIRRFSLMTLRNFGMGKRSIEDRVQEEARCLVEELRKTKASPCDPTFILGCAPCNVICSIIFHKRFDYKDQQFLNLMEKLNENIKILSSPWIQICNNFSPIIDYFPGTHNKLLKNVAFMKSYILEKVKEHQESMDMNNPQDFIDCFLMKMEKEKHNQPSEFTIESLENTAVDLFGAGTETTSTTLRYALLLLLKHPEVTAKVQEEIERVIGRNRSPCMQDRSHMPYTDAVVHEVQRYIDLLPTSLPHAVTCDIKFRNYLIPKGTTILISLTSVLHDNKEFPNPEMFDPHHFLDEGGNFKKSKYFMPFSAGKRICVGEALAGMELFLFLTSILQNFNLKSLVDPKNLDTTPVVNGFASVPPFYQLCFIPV

[33] = target: Dual specificity tyrosine-phosphorylation-regulated kinase 1B (Homo sapiens) (UniProt Q9Y463); experiment: Inhibition of human wildtype full length DYRK1B expressed in bacterial system at 10 uM relative to control
Sequence of Dual specificity tyrosine-phosphorylation-regulated kinase 1B (Homo sapiens) (Q9Y463 whole entry, looked up): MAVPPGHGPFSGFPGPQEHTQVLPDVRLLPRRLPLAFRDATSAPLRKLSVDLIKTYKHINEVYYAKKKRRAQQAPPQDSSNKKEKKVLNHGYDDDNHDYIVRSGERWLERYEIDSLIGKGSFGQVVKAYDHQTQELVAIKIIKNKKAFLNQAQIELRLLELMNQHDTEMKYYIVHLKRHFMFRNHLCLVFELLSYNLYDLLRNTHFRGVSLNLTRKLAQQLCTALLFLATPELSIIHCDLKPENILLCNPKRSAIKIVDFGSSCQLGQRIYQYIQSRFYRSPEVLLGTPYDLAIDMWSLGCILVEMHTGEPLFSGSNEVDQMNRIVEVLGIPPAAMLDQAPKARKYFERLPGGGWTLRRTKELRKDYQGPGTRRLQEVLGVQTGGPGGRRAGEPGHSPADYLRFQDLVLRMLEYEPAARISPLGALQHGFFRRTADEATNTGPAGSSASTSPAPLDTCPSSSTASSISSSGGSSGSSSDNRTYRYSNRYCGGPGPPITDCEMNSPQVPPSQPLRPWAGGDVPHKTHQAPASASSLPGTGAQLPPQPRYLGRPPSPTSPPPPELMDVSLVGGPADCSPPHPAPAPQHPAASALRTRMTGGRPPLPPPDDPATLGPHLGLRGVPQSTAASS

Sequence of Indoleamine 2,3-dioxygenase 1 (P14902 whole entry): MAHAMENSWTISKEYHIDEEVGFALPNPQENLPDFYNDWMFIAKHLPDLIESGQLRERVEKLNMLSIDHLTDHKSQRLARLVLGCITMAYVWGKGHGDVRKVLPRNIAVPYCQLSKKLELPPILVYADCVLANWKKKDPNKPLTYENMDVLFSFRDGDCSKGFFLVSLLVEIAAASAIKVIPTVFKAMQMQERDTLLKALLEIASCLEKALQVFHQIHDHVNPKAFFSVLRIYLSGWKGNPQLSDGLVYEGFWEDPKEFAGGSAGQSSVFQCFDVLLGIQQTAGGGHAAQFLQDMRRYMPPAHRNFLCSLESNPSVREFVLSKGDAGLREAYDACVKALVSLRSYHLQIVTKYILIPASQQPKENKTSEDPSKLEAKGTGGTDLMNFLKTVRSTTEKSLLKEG

**Q.** With O[C@@H]1CCCC[C@H]1CNc1cc(Br)cc2[nH]ncc12 as the compound, how does the pEC50 [1] read?
**A.** The pEC50 was 5.26.

**Q.** What about the pEC50 [2] of the same compound?
**A.** The pEC50 was 5.52.

**Q.** And the Papp A→B [3]?
**A.** Its Papp A→B is 19.4 ×10⁻⁶ cm/s.

**Q.** And the Papp B→A [4]?
**A.** Its Papp B→A is 10.3 ×10⁻⁶ cm/s.

**Q.** What about the Papp B→A [5] of the same compound?
**A.** The Papp B→A was 10.4 ×10⁻⁶ cm/s.

**Q.** What about the efflux ratio [6] of the same compound?
**A.** Its efflux ratio is 0.51.

**Q.** And the recovery [7]?
**A.** The recovery was 42.2%.

**Q.** And the recovery [8]?
**A.** Its recovery is 43.8%.

**Q.** What about the recovery [9] of the same compound?
**A.** Its recovery is 74.9%.

**Q.** And the fraction unbound [10]?
**A.** Its fraction unbound is 0.0073.

**Q.** And the Fu [11]?
**A.** The Fu was 0.25%.

**Q.** And the AUC(0-t) [12]?
**A.** The AUC(0-t) was 22200 ng·h/mL.

**Q.** What about the half-life [13] of the same compound?
**A.** The half-life was 4.27 h.

**Q.** What about the half-life [14] of the same compound?
**A.** Its half-life is 10.1 h.

**Q.** What about the Cmax [15] of the same compound?
**A.** The Cmax was 6870 ng/mL.

**Q.** And the AUC(0-t) [16]?
**A.** The AUC(0-t) was 30300 ng·h/mL.

**Q.** What about the AUC(0-inf) [17] of the same compound?
**A.** The AUC(0-inf) was 43800 ng·h/mL.

**Q.** What about the Vd [18] of the same compound?
**A.** The Vd was 28.1 L/kg.

**Q.** And the CL/F [19]?
**A.** Its CL/F is 69.7 mL/min/kg.

**Q.** And the bioavailability [20]?
**A.** Its bioavailability is 73.2%.

**Q.** What about the “K(p,uu,brain)” value [21] of the same compound?
**A.** The value was 0.28%.

**Q.** What about the Activity [22] of the same compound?
**A.** The Activity was “Non-Toxic”.

**Q.** And the Activity [23]?
**A.** Its Activity is “Non-Toxic”.

**Q.** What about the Activity [24] of the same compound?
**A.** Its Activity is “Non-Toxic”.

**Q.** And the Activity [25]?
**A.** Its Activity is “Active”.

**Q.** And the Activity [26]?
**A.** The Activity was “Active”.

**Q.** What about the Activity [27] of the same compound?
**A.** The Activity was “Active”.

**Q.** And the Activity [28]?
**A.** Its Activity is “Active”.

**Q.** What about the Activity [29] of the same compound?
**A.** Its Activity is “Active”.

**Q.** What about the Activity [30] of the same compound?
**A.** The Activity was “Active”.

**Q.** And the Activity [31]?
**A.** The Activity was “Active”.

**Q.** And the pIC50 [32]?
**A.** Its pIC50 is 5.03.

**Q.** And the inhibition [33]?
**A.** The inhibition was over 90%.
